Measurements reported in patent US9278947B2, “Serotonin reuptake inhibitors as drugs having peripheral-system-restricted activity” (priority 2006, dated 2016).
Where two headings read alike, the source gives them in different places. Marks after values point to notes of the source that are not given here.

Assays:
mice [1] = assay: Tail bleeding time in chronically treated mice; assay type: in vivo; settings: for Mean (n = 4) of mean bleeding time: mean over experiments (different doses)
Method: The anti-thrombotic effects of a drug can be evaluated in mice through a bleeding time experiment. Mice were treated by the tested drugs for two weeks, then anesthetized and placed on a warming pad before a segment of their tail was amputated. The tail was immersed in 0.9% isotonic saline at 37° C., and the time required for the stream of blood to stop was defined as the bleeding time. Different cuts and drug doses were tested. Control mice were administered either DDW (p.o) or saline (i.p). In some experiments (Nos. 5 and 6), half of the mice were administered DDW and half saline.

mice [2] = assay: Collagen-epinephrine induced acute pulmonary thromboembolism in mice; assay type: in vivo; settings: for death or paralysis after collagen-epinephrine injection versus control group: chronic treatment: aspirin 70 mg/kg, citalopram 10 mg/kg, NMC 10 mg/kg; for Number of mice who died: died or paralyzed after collagen-epinephrine into tail vein; for % death: died or paralyzed; for Mean % death ± S.E.M: mean of 3 experiments
Method: An experimental model of acute pulmonary thromboembolism was induced in mice by injecting a mixture of collagen (0.5 mg/kg) and epinephrine (0.5 mg/kg). […] The injection was followed by a massive activation of circulating platelets and the widespread formation of platelet thrombi in the microcirculation of the lungs leading to disseminated pulmonary microembolism and paralysis of the animal.

[3] = reported in reference [1]; cited from earlier work
[4] = system: [^3H]dopamine uptake into rat brain synaptosomes; assay: [^3H]dopamine uptake by rat brain synaptosomes; assay type: biochemical; settings: for inhibition of [^3H]dopamine uptake: at 45 nM
Method: (§1) [^3H]dopamine and [^3H]noradrenaline uptake assays were carried out in synaptosomes from rat brain cortex. After a 10 minutes pre-incubation period at 37° C., [^3H]dopamine or [^3H]noradrenaline were added to the tubes containing synaptosomes and tested drugs. The reactions were stopped after four minutes by rapid cooling on ice. Specific uptake was defined as the difference between total uptake at 37° C. (triplicate samples) and the uptake measured at 0° C. (duplicate samples). Three separate experiments were performed.

[5] = system: [^3H]noradrenaline uptake into rat brain synaptosomes; assay: [^3H]noradrenaline uptake by rat brain synaptosomes; assay type: biochemical; settings: for inhibition of [^3H]noradrenaline uptake: at 8.5 nM
Method: as §1

[6] = Experiment No. 1, 70 mg/kg for two weeks
[7] = Experiment No. 2, 70 mg/kg for two weeks
[8] = Experiment No. 3, 70 mg/kg for two weeks
[9] = 3 mm tail amputation, Experiment No. 3, CJ57/black, 2 mg/kg p.o., two weeks
[10] = 3 mm tail amputation, Experiment No. 5, ICR, 10 mg/kg i.p., two weeks
[11] = Experiment No. 1, 10 mg/kg for two weeks
[12] = Experiment No. 2, 10 mg/kg for two weeks
[13] = Experiment No. 3, 10 mg/kg for two weeks
[14] = 10 mg/kg for two weeks (control 72 ± 2)

| Compound | Mean (n = 4) of mean bleeding time (mice [1]; 3 mm tail amputation) | death or paralysis after collagen-epinephrine injection versus control group (mice [2]) | reduction of MI risk [3] | inhibition of [^3H]dopamine uptake [4] | inhibition of [^3H]noradrenaline uptake [5] | Mean bleeding time (mice [1]; [9]) | Mean bleeding time (mice [1]; [10]) | Number of mice who died (mice [2]; [11]) | Number of mice who died (mice [2]; [12]) | Number of mice who died (mice [2]; [13]) | % death (mice [2]; [11]) | % death (mice [2]; [12]) | % death (mice [2]; [13]) | Mean % death ± S.E.M (mice [2]; [14]) | other results |
| --- | --- | --- | --- | --- | --- | --- | --- | --- | --- | --- | --- | --- | --- | --- | --- |
| CC(=O)Oc1ccccc1C(=O)O [Aspirin] | 288 s | significantly less prone to die or to be paralyzed | 20% |  |  |  |  |  |  |  |  |  |  |  | Mean bleeding time (mice [1]; 3 mm tail amputation, Experiment No. 2, CJ57/black, 40 mg/kg p.o., two weeks): 389 s; Mean bleeding time (mice [1]; 3 mm tail amputation, Experiment No. 3, CJ57/black, 40 mg/kg p.o., two weeks): 230 s; Mean bleeding time (mice [1]; 3 mm tail amputation, Experiment No. 4, CJ57/black, 70 mg/kg p.o., two weeks): 394 s; Mean bleeding time (mice [1]; 3 mm tail amputation, Experiment No. 5, ICR, 70 mg/kg p.o., two weeks): 145 s; Mean bleeding time (mice [1]; 4 mm tail amputation, Experiment No. 6, ICR, 40 mg/kg p.o.): 221 s; Mean bleeding time (mice [1]; amputation where tail diameter is 2 mm, Experiment No. 1, CJ57/black, 40 mg/kg p.o.): 233 s; Number of mice who died (mice [2]; [6]): 5/10; Number of mice who died (mice [2]; [7]): 5/12; Number of mice who died (mice [2]; [8]): 3/11; % death (mice [2]; [6]): 50%; % death (mice [2]; [7]): 42%; % death (mice [2]; [8]): 27%; Mean % death ± S.E.M (mice [2]; 70 mg/kg for two weeks (control 72 ± 2)): 40^a ± 7^ % |
| CN(C)CCCC1(c2ccc(F)cc2)OCc2cc(C#N)ccc21 (stereo not shown) [Citalopram, 1-(3-Dimethylamino-propyl)-1-(4-fluoro-phenyl)-1,3-dihydro-isobenzofuran-5-carbonitrile] | 171 s | did not cause a significant improvement |  | did not inhibit | did not have any effect | 179 s | 66 s | 7/9 | 8/13 | 7/10 | 78% | 61% | 70% | 70 ± 5% | Mice behavior following injections, day 1 (ICR mice; 30 mg/day i.p., ICR mice, observed 1 hour): normal; Mice behavior following injections, day 3 (ICR mice; 100 mg/day i.p., ICR mice, observed 1 hour): looks weak |
| C[N+](C)(C)CCCC1(c2ccc(F)cc2)OCc2cc(C#N)ccc21 (stereo not shown) [NMC, N-methyl-citalopram] | 191 s | significant decrease in death or paralysis |  | less than 10% | less than 20% | 150 s | 124 s | 6/8 | 4/13 | 6/14 | 75% | 31% | 43% | 50^b ± 10% | dose at which not lethal to mice (ICR mice; i.p., mice): less than 50 mg/kg; Mice behavior following injections, day 1 (ICR mice; mouse, in vivo, ip): normal; Mice behavior following injections, day 2 (ICR mice; mouse, in vivo, ip): normal; Mice behavior following injections, day 3 (ICR mice; mouse, in vivo, ip): normal; doses that can be toxic (ICR mice; mouse, in vivo, ip): above 50 mg/kg |
| COC(=O)[C@H](c1ccccc1Cl)N1CCc2sccc2C1 [clopidogrel] |  |  | 10% |  |  |  |  |  |  |  |  |  |  |  |  |
| OC1(c2ccc(Cl)cc2)c2ccccc2C2=NCCN21 (stereo not shown) [mazindol] |  |  |  |  |  |  |  |  |  |  |  |  |  |  | IC50 ([4]; rat brain synaptosomes, read-out: concentration inhibiting [^3H]dopamine uptake by 50%): 45 nM; IC50 ([5]; rat brain synaptosomes, read-out: concentration inhibiting [^3H]noradrenaline uptake by 50%): 8.5 nM |
